Data published in patent US7829578B1, “Aromatic ketones and uses thereof” (Oregon Health & Science University, priority 2005, dated 2010).
Like-named read-outs stand apart in the source and are kept apart here.

Experiments:
Type in all cases: cell-based
[1] = system: drug susceptible (D6) strain of Plasmodium falciparum; experiment: In vitro antimalarial MSF (SyBrGreen I fluorescence) assay, D6 strain; settings: for improvement of antimalarial potency by the QZ group: compared to IC50 of the parent compound without the QZ side chain
Experimental: (§1) Four different laboratory strains of P. falciparum were cultured in human erythrocytes by standard methods under a low oxygen atmosphere (5% O2, 5% CO2, 90% N2) in an environmental chamber. The culture medium was RPMI 1640, supplemented with 25 mM Hepes buffer, 25 mg/liter gentamicin sulfate, 45 mg/liter hypoxanthine, 10 mM glucose, 2 mM glutamine, and 0.5% Albumax II (complete medium). The parasites were maintained in fresh human erythrocytes suspended at a 2% hematocrit in complete medium at 37° C. Stock cultures were sub-passaged every 3 to 4 days by transfer of infected red cells to a flask containing complete medium and uninfected erythrocytes.
(§2) In vitro antimalarial activity of the test compounds was assessed by a fluorescence-based method described previously (Smilkstein et al., 2004, Antimicrobial Agents and Chemotherapy, Vol. 48, pgs. 1803-1806) (reference format?). The studies were set up in triplicate in 96 well plates with two-fold dilutions of each test compound across the plate in a total volume of 100 μl and at a final red blood cell concentration of 2% (v/v). Stock solutions of each drug were prepared by dissolving in DMSO at 10 mM. […] In every case, an additional determination was performed to ensure bracketing of the IC50 value by at least an order of magnitude.
(§3) Automated pipeting and dilution was carried out by a programmable Precision 2000 robotic station (Bio-Tek, Winooski, Vt.). An initial parasitemia of 0.2% was attained by addition of normal uninfected red cells to a stock culture of asynchronous parasite infected red cells (PRBC). The plates were incubated for 72 hrs at 37° C. in an atmosphere of 5% CO2, 5% O2, and 90% N2. After this period, the SyBrGreen I dye-detergent mixture (100 μl) was added and the plates were incubated at room temperature for an hour in the dark and then placed in a 96-well fluorescence plate reader (Gemini-EM, […]) for analysis with excitation and emission wavelength bands centered at 497 and 520 nm, respectively.

[2] = system: multi-drug resistant strains of Plasmodium falciparum (W2, Dd2, 7G8 and Tm93C1088); experiment: In vitro antimalarial activity against multi-drug resistant strains; settings: for IC50: Plasmodium falciparum; for IC50 values, stated in words: against multidrug resistant Plasmodium falciparum parasites
Experimental: as §1, §2, §3

[3] = system: Plasmodium parasitized red blood cells; experiment: Oxygen consumption (respiration) by parasitized red blood cells (FIG. 3); settings: compared with atovaquone at equimolar concentrations
From the text: While not intending to be limited to any mechanism of action, it is contemplated that some of the presently described compounds may act through inhibiting parasite growth through inhibition of the enzyme cytochrome b.

[4] = system: Murine splenic lymphocytes; experiment: MSLCs-concanavalin A induced proliferation (blastogenesis) cytotoxicity assay, Alamar Blue fluorescence; settings: Table 2, 24-hr MSLCs-concanavalin A induced proliferation
Experimental: *Data are the average of at least 3 independent experiments, each performed in triplicate with the aid of a Precision 2000 robotic pipeting station. IC50 values were determined by the MSF assay. […] MSLCs=Murine splenic lymphocytes. Cytotoxicity was determined using a 24-hr MSLCs-concanavalin A induced proliferation assay using the Alamar Blue fluorescence method. IVTI=in vitro therapeutic index calculated from the ratio of IC50 values based on the cytotoxicity observed in the blastogenesis assay and the antimalarial potency against the D6 strain of P. falciparum. NT=not tested.
*Data are the average of at least 3 independent experiments, each performed in triplicate with the aid of a Precision 2000 robotic pipeting station. IC50 values were determined by the MSF assay (Smilkstein et al., AAC, 2004). MSLCs=Murine splenic lymphocytes. Cytotoxicity was determined using a 48-hr MSLCs-concanavalin A induced proliferation assay using the Alamar Blue fluorescence method. IVTI=in vitro therapeutic index calculated from the ratio of IC50 values of the cytotoxicity observed in the blastogenesis assay and antimalarial potency against the D6 strain of P. falciparum. NA=not applicable; ND=not determined.

[5] = system: multi-drug resistant (Dd2) strain of Plasmodium falciparum; experiment: In vitro antimalarial MSF (SyBrGreen I fluorescence) assay, Dd2 strain
Experimental: as §1, §2, §3

[6] = system: Murine splenic lymphocytes; experiment: MSLCs-concanavalin A induced proliferation (blastogenesis) cytotoxicity assay, Alamar Blue fluorescence; settings: Table 3, 48-hr MSLCs-concanavalin A induced proliferation
[7] = Plasmodium falciparum, D6, read-out: IC50 against drug sensitive (D6) strain
[8] = Table 2, MSF assay, 72 hrs, average of at least 3 experiments, read-out: D6 IC50
[9] = Table 2, 72 hrs, average of at least 3 experiments
[10] = Plasmodium falciparum, D6, Table 3, MSF assay, read-out: D6 IC50
[11] = Mus musculus, Splenic lymphocyte
[12] = Table 3, MSF assay, read-out: D6 IC50
[13] = Plasmodium falciparum, DD2, Table 3

Row | Structure (SMILES) | IC50 [4] [nM] | IC50 [1, 8] [nM] | IC50 [5, 9] [nM] | further results
1 | O=c1c2ccc(O)cc2oc2cc(OCCCCCC(F)(F)F)ccc12 [3-(6,6,6-trifluorohexyloxy)-6-hydroxyxanthone] |  |  |  | IC50 [1, 7]: ~700 nM; improvement of antimalarial potency by the QZ group [1]: more than 100 fold; IC50 [2]: ~700 nM
2 | O=C1C=C(OCCCCC(F)(C(F)(F)F)C(F)(F)F)C(=O)c2ccccc21 [NAP 005, 2-(5,6,6,6-tetrafluoro-5-trifluoromethyl-hexyloxy)-[1,4]naphthoquinone] |  |  |  | inhibition of oxygen consumption (respiration) [3]: does not inhibit oxygen consumption; IC50 values, stated in words [2]: low nanomolar range
3 | O=c1c2ccc(Cl)cc2[nH]c2cc(OCCCCCC(F)(F)F)ccc12 [No. 21, 3-(6,6,6-trifluorohexyloxy)-6-chloroacridone] |  |  |  | IC50 [1, 7]: 0.16 nM; improvement of antimalarial potency by the QZ group [1]: more than 10,000 fold; IC50 [2]: 0.16 nM
4 | O=C1C=C(OCCCCC(F)(F)F)C(=O)c2ccccc21 [No. 35, 2-(5,5,5-trifluoropentyloxy)-1,4-naphthoquinone] |  |  |  | IC50 [1, 7]: ~133 nM; improvement of antimalarial potency by the QZ group [1]: roughly 50 fold; IC50 [2]: ~133 nM
5 | COc1ccc2c(=O)c(CCCCCC(F)(F)F)c(C)[nH]c2c1 [No. 44, 2-methyl-3-(6,6,6-trifluorohexyl)-7-methoxy-4(1H)-quinolone] |  |  |  | inhibition of oxygen consumption (respiration) ([3]; listed as 2-methyl-3-(6,6,6-trifluorohexyl)-7-methoxy-4-quinolone): equivalent to atovaquone at equimolar concentrations; IC50 values, stated in words [2]: low nanomolar range
6 | O=C1c2ccc(OCCCCCC(F)(F)F)cc2C(=O)c2ccc(O)cc21 [compound 15] | > 25000 | 27 | 54 | 
7 | O=c1c2ccc(Cl)cc2[nH]c2cc(OCCCCCCl)ccc12 [compound 16] | > 25000 | 12 | 13 | 
8 | O=c1c2ccc(Cl)cc2[nH]c2cc(OCCCC(F)(F)F)ccc12 [compound 17] | > 25000 | 1 | 1.2 | 
9 | O=c1c2ccc(Cl)cc2[nH]c2cc(OCCCCC(F)(F)F)ccc12 [compound 18] | > 25000 | 0.3 | 0.5 | 
10 | O=c1c2ccc(Cl)cc2oc2cc(OCCCCC(F)(F)F)ccc12 [compound 19] | > 25000 | 16000 | 18000 | 
11 | O=c1c2ccccc2[nH]c2cc(OCCCCC(F)(F)F)ccc12 [compound 20] | > 25000 | 0.5 | 0.3 | 
12 | O=c1c2ccc(Cl)cc2[nH]c2cc(OCCCCCC(F)(F)F)ccc12 [compound 21] | > 25000 | 0.06 | 0.07 | 
13 | O=c1c2ccc(Cl)cc2[nH]c2ccc(OCCCCCC(F)(F)F)cc12 [compound 22] | > 25000 | 10 | 15 | 
14 | O=c1c2ccc(Cl)cc2[nH]c2cc(OCCCCC(F)(F)C(F)(F)F)ccc12 [compound 23] | > 25000 | 0.02 | 0.02 | 
15 | O=c1c2ccccc2[nH]c2ccc(OCCCCCC(F)(F)F)cc12 [compound 25] | > 25000 | 36 | 49 | 
16 | O=c1c2ccccc2[nH]c2cc(OCCCCCC(F)(F)F)ccc12 [compound 26] | > 25000 | 0.43 | 0.015 | 
17 | O=c1c2ccccc2[nH]c2c(OCCCCCC(F)(F)F)cccc12 [compound 27] | > 25000 | 446 | 515 | 

Row | Structure (SMILES) | IC50 [4] [nM] | IC50 [1, 8] [nM] | IC50 [5, 9] [nM] | further results
18 | O=c1c2ccc(Cl)cc2[nH]c2cc(OCCCCCCCC(F)(F)F)ccc12 [compound 28] | > 25000 | 0.16 | 0.17 | 
19 | O=c1c2ccc(Cl)cc2[nH]c2cc(OCCCCCCCCO)ccc12 [compound 29] | > 25000 | 2.2 | 3.5 | 
20 | O=c1c2ccc(Cl)cc2[nH]c2cc(OCCCCCCCCCCC(F)(F)F)ccc12 [compound 30] | > 25000 | 0.023 | 0.025 | 
21 | Cn1c2cc(Cl)ccc2c(=O)c2ccc(OCCCCC(F)(F)F)cc21 [compound 31] | > 25000 | 4000 | 3500 | 
22 | Nc1c2ccc(Cl)cc2nc2cc(OCCCCCC(F)(F)F)ccc12 [compound 32] | 250 | 2.9 | 10 | 
23 | O=c1c2ccc(OCCCCCC(F)(F)F)cc2[nH]c2cc([N+](=O)[O-])ccc12 [compound 33] | > 25000 | 3.2 | 5.8 | 
24 | O=C1C=C(OCCCCC(F)(F)F)C(=O)c2ccccc21 [compound 35] | 14000 | 32 | 35 | 
25 | C=CC1CN2CCC1CC2C(O)c1ccnc2ccc(OC)cc12 (stereo not shown) [compound 37] | 23000 | 11 | 68 | 
26 | CC1CCC2C(C)C(=O)OC3OC4(C)CCC1C32OO4 (stereo not shown) [compound 39] | > 25000 | 0.65 | 0.9 | 
27 | COc1ccc2c(=O)cc[nH]c2c1 [compound 40] |  |  |  | IC50 [1, 10]: > 2500 nM; IC50 [6, 11]: > 25000 nM
28 | CCOC(=O)c1c[nH]c2cc(OC)ccc2c1=O [compound 41] |  |  |  | IC50 [1, 12]: 440 nM; IC50 [6]: > 25000 nM
29 | COc1ccc2c(=O)c(C(=O)O)c[nH]c2c1 [compound 42] |  |  |  | IC50 [1, 10]: > 2500 nM; IC50 [6, 11]: > 25000 nM
30 | COc1ccc2c(=O)cc(C)[nH]c2c1 [compound 43] |  |  |  | IC50 [1, 10]: 7000 nM; IC50 [5, 13]: 13700 nM; IC50 [6, 11]: > 25000 nM
31 | COc1ccc2c(=O)c(CCCCCC(F)(F)F)c(C)[nH]c2c1 [compound 44] |  |  |  | IC50 [1, 10]: 10.2 nM; IC50 [5, 13]: 12.8 nM; IC50 [6, 11]: > 25000 nM
32 | COc1ccc2c(=O)c(CCCCCCCCCCC(F)(F)F)c(C)[nH]c2c1 [compound 45] |  |  |  | IC50 [1, 12]: 0.2 nM; IC50 ([5]; Table 3): 0.36 nM; IC50 [6]: > 25000 nM
33 | CCOC(=O)c1c[nH]c2cc(OCCCCCC(F)(F)F)ccc2c1=O [compound 46] |  |  |  | IC50 [1, 12]: 1.2 nM; IC50 ([5]; Table 3): 1.2 nM; IC50 [6]: > 25000 nM
